According to ChEMBL document CHEMBL1124230, “Synthesis and anti-HIV activity of different sugar-modified pyrimidine and purine nucleosides” (1988):

Columns and labels:
[1] = tested on: Human immunodeficiency virus 1; assay: Dose required to inhibit cytopathic effect of human immunodeficiency virus replication in MT-4 cells.; assay type: functional; conditions: Human immunodeficiency virus 1, MT4; read-out: ED50 (the source's name)
MT4 [2] = assay: Cytotoxic dose required to reduce the viability of normal uninfected MT-4 cells.; assay type: functional; conditions: Homo sapiens, read-out: CD50 (the source's name)
MT4 [3] = assay: Ratio of CD50 to ED50 rvaluated for inhibition of HIV replication in MT-4 cells; assay type: functional
[4] = Ratio of CD50 to ED50 evaluated for inhibition of HIV replication in MT-4 cells; assay type: functional, MT4

SMILES | EC50 [1] | CC50 (MT4 [2]) | Selectivity index (MT4 [3]) | Selectivity index [4]
Nc1ncnc2c1ncn2[C@@H]1O[C@H](CO)C[C@@H]1O | > 500 µM | > 500 µM | – | –
Cc1cn([C@H]2C[C@H](N=[N+]=[N-])[C@@H](CO)O2)c(=O)nc1N | 1.8 µM | > 1000 µM | 555 | –
[N-]=[N+]=N[C@H]1C[C@H](n2ccc(N)nc2=O)O[C@@H]1CO | 3.1 µM | 34.1 µM | 11 | –
Nc1ncnc2c1ncn2[C@@H]1O[C@H](CO)[C@H]2O[C@H]21 | > 500 µM | > 500 µM | – | –
Nc1ncnc2c1ncn2[C@@H]1O[C@H](CO)[C@@H]2O[C@@H]21 | > 100 µM | > 100 µM | – | –
CNc1nc(=O)n(C2CC(N=[N+]=[N-])C(CO)O2)cc1C (stereo not given) | 17.3 µM | > 1000 µM | >58 | –
O=c1ccn([C@H]2C[C@H](F)[C@@H](CO)O2)c(=O)[nH]1 | 0.04 µM | 16 µM | 400 | –
Nc1ncnc2c1ncn2C1OC(CO)CC1Br (stereo not given) | > 500 µM | > 500 µM | – | –
C#CC1C(CO)OC(n2cc(C)c(=O)[nH]c2=O)C1O (stereo not given) | > 500 µM | > 500 µM | – | –
Nc1ncnc2c1ncn2C1OC(CO)CC1Cl (stereo not given) | > 500 µM | > 500 µM | – | –
CC(=O)SC1CC(n2cc(C)c(=O)[nH]c2=O)OC1CO (stereo not given) | 27 µM | 29 µM | 1.1 | –
CNc1ccn(C2CC(N=[N+]=[N-])C(CO)O2)c(=O)n1 (stereo not given) | 605 µM | > 1000 µM | >1.6 | –
Nc1nc(N)c2ncn([C@H]3C[C@H](O)[C@@H](CO)O3)c2n1 | > 125 µM | > 625 µM | – | –
Cc1cn([C@H]2C[C@H](OC(=S)Oc3ccccc3)[C@@H](CO)O2)c(=O)[nH]c1=O | > 250 µM | > 250 µM | – | –
Nc1nc(O)c2ncn(C3C=CC(CO)O3)c2n1 (stereo not given) | > 5 µM | 11 µM | – | >2.2
Cc1cn(C2OC(CO)C(C#N)C2O)c(=O)[nH]c1=O (stereo not given) | > 500 µM | – | – | –
Cc1cn([C@H]2C[C@H](SS[C@H]3C[C@H](n4cc(C)c(O)nc4=O)O[C@@H]3CO)[C@@H](CO)O2)c(=O)nc1O | 16 µM | 34 µM | 2.1 | –
Cc1ccc(SC2CC(n3cc(C)c(=O)[nH]c3=O)OC2CO)cc1 (stereo not given) | > 100 µM | 116 µM | <1.2 | –
Nc1nc(N)c2ncn(C3CC(F)C(CO)O3)c2n1 (stereo not given) | 4.5 µM | 360 µM | 80 | –
Nc1nc(O)c2ncn(C3CC(F)C(CO)O3)c2n1 (stereo not given) | 2.4 µM | 237 µM | – | 96
CC1=CN(C2CC(N=[N+]=[N-])C(CO)O2)CN=C1NO (stereo not given) | 1.5 µM | 92 µM | 61 | –
Cc1cn([C@H]2C[C@H](F)[C@@H](CO)O2)c(=O)[nH]c1=O [ALOVUDINE] | 0.001 µM | 0.197 µM | 197 | –
Nc1ncnc2c1ncn2[C@@H]1O[C@H](CO)C[C@H]1O [CORDYCEPIN] | > 50 µM | 45 µM | <0.5 | –
Nc1ncnc2c1ncn2[C@H]1C[C@H](O)[C@@H](CO)O1 [DEOXYADENOSINE] | > 100 µM | > 100 µM | – | –
Nc1nc(O)c2ncn([C@H]3C[C@H](O)[C@@H](CO)O3)c2n1 [DEOXYGUANOSINE] | 158 µM | > 500 µM | – | 3.1
[N-]=[N+]=N[C@H]1C[C@H](n2ccc(=O)[nH]c2=O)O[C@@H]1CO [NAVURIDINE] | 0.36 µM | 244 µM | 677 | –
Cc1cn([C@H]2C[C@H](N=[N+]=[N-])[C@@H](CO)O2)c(=O)[nH]c1=O [ZIDOVUDINE] | 0.004 µM | 20 µM | 5000 | –
